The text below walks through data of patent publication US20080039533A1, “Bioactive Compositions Comprising Triazines” (3M INNOVATIVE PROPERTIES COMPANY, priority 2003, published 2008).

Values after ≈ are worked out from the molar mass of the structure shown.

This series is described as follows: physchem. The settings on record: buffer solution without triazine compound.

By solubility is commonly meant the concentration that dissolves in the medium under given conditions. A high value points to much dissolved substance. `CC(C)Cn1cnc2c(N)nc3ccccc3c21` [Imiquimod]: the solubility by setting is: (pH 6.05, aqueous buffer) 20 µg/mL (≈ 83.2 µM); (pH 7.82, aqueous buffer) 1.2 µg/mL (≈ 4.99 µM).
